Where no end group is shown, it is not given here.
Tested on: DHD-K12 cells
Settings: rat, in vivo
From the text: Autologous colon carcinoma DHD-K12 line cells were inoculated intra-splenically in BDIX rats. These cells metastatize at polmonar and hepatic level and naturally express the epitope common also to human colon rectal carcinoma ([…] (SEQ ID NO:4)). To evaluate the relevance of […] (SEQ ID NO:4) antigen in antigen specific cytotoxic response BDIX rats were immunized with DHD-K12.
PBMC cytotoxic activity (cytotoxicity test based on the release of ^51Cr or LDH) of BDIX rats against DHD-K12 cells was evaluated after immunization and tumor inoculum.

Sequence: RTQKEASIC
- PBMC cytotoxic activity after tumor inoculum, pre-immunized vs non immunized rats: significantly increased
- PBMC cytotoxic activity against DHD-K12 after immunization: high cytotoxic activity

Reference: US9150627B2, “Anti tumoral immunogenic peptides and vaccine thereof” (priority 2004, dated 2015)
